In patent US12251368B2, “Continuous administration of pharmaceutical composition for treatment of neurodegenerative disorders” (InTrance Medical Systems Inc., priority 2018, dated 2025):
“And” between values parts separate entries of the source, which are not always exact repeats. Equal entries are not always repeated.

Assays:
[1] = in vivo; cited from earlier work
[2] = cited from earlier work
[3] = target: T1, peripheral dopamine decarboxylase (Homo sapiens, UniProt P20711); settings: KINSON prescribing information; cited from earlier work
T1 construct: host or cells: patients (peripheral tissues)
T1 sequence (P20711 1-480): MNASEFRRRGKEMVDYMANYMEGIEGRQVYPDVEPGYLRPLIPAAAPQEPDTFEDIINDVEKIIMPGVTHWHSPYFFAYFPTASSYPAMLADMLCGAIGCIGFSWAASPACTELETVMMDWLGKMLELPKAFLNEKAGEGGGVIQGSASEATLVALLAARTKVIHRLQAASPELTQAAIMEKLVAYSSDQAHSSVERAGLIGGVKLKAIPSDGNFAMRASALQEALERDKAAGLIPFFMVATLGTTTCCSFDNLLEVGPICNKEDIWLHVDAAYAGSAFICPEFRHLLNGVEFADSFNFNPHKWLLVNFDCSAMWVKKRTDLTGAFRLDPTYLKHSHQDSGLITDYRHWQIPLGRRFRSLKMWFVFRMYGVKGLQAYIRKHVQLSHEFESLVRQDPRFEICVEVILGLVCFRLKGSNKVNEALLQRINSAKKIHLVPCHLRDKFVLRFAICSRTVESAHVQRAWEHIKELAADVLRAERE

[4] = Storage stability / shelf life of intra-intestinal gel; assay type: physicochemical
[5] = cited from earlier work; remark: listed apart in the source
[6] = intravenous administration (3 mg/kg); cited from earlier work
[7] = in the presence of COMT inhibitors; literature reports; cited from earlier work

For `NCCc1ccc(O)c(O)c1` [dopamine, 3,4-dihydroxyphenethylamine], the “crossing of the blood-brain barrier” value [1] is given as “does not cross the blood-brain barrier”.

For `C[C@@](Cc1ccc(O)c(O)c1)(NN)C(=O)O` [Carbidopa, (−)-L-α-hydrazino-α-methyl-β-(3,4-dihydroxybenzene) propanoic acid monohydrate], the solubility in water [2] is given as “slightly soluble in water”, the “crossing of the blood-brain barrier” value [1] is given as “does not cross the blood-brain barrier” and the “dose at which peripheral dopamine decarboxylase is saturated” value [3] is given as 70-100 mg per day. The “effect of storage in a light reducing container on degradation” value ([4]; light reducing container, such as an aluminum bag) was “some positive effect”.

In the case of `N[C@@H](Cc1ccc(O)c(O)c1)C(=O)O` [Levodopa, (−)-L-α-amino-β-(3,4-dihydroxybenzene) propanoic acid], the solubility in water [2] is given as “slightly soluble in water”, the “crossing of the blood-brain barrier” value [1] is given as “does cross the blood-brain barrier” and the bioavailability ([5]; administered via DUODOPA gel, same as in a tablet) is given as 81-98%. The “fraction metabolized to dopamine before levodopa reaches the brain” value ([5]; intake of levodopa alone) was “more than 90%” and the “stability in intra-intestinal gel” value ([4]; prior art LCIG and gel compositions of the invention) was “relatively stable”.

For `Cc1ccc(C(=O)c2cc(O)c(O)c([N+](=O)[O-])c2)cc1` [Tolcapone, (3,4-Dihydroxy-5-nitrophenyl)(4-methylphenyl)methanone], the elimination half-life [6] is listed as 2.9 h and the Levodopa bioavailablity increase [7] is listed as 33% and 25%.
